Experimental data taken from patent publication US7524844B2, “Dipeptidyl peptidase IV inhibitors, process for their preparation and compositions containing them” (Glenmark Pharmaceuticals S.A., priority 2004, dated 2009).
pIC50: −log10 of the molar value.

Biological target: T1, human recombinant Dipeptidyl peptidase IV enzyme (DPP-IV) (Homo sapiens, UniProt P27487)
T1 construct: purchased R&D Systems Inc. of Minneapolis, Minn
Assay: in-vitro DPP-IV assay (cleavage of AMC from Gly-Pro-AMC)
Type: biochemical
Details: human recombinant DPP-IV, Gly-Pro-AMC substrate, 30° C., 30 minutes; read-out: DPP-IV inhibition using human recombinant DPP-IV enzyme, IC50
Procedure: DPP-IV activity was determined by the cleavage rate of 7-amino-4-methyl coumarin (AMC) from the synthetic substrate Glycyl-Prolyl-AMC. In brief, the assay was conducted by adding 10 ng of human recombinant Dipeptidyl peptidase IV enzyme (DPP-IV, available commercially from R&D Systems Inc. of Minneapolis, Minn.) in 50 μl of the assay buffer (25 mM Tris, pH 7.4, 140 mM NaCl, 10 mM KCl, 1% BSA) to 96 well black flat bottom microtiter plates. The reaction was initiated by adding 50 μl of 100 μM substrate Gly-Pro-AMC. The incubation was carried out in the kinetic mode at 30° C. for 30 minutes. Fluorescence was measured using Fluorostar with an excitation filter of 380 nm and emission filter of 460 nm. Test compounds and solvent controls were added as 1 μl additions. A standard curve of free amino methyl coumarin (AMC) was generated using 0-100 μM AMC in the assay buffer. The curve generated, which was linear was used for the interpolation of catalytic activity.
Test compounds dissolved in DMSO at 5-6 concentrations were tested in duplicate along with the solvent control and blank samples. Percent inhibition was calculated at each concentration with respect to the solvent control sample (no test compound added). […]

T1 sequence (P27487 whole entry): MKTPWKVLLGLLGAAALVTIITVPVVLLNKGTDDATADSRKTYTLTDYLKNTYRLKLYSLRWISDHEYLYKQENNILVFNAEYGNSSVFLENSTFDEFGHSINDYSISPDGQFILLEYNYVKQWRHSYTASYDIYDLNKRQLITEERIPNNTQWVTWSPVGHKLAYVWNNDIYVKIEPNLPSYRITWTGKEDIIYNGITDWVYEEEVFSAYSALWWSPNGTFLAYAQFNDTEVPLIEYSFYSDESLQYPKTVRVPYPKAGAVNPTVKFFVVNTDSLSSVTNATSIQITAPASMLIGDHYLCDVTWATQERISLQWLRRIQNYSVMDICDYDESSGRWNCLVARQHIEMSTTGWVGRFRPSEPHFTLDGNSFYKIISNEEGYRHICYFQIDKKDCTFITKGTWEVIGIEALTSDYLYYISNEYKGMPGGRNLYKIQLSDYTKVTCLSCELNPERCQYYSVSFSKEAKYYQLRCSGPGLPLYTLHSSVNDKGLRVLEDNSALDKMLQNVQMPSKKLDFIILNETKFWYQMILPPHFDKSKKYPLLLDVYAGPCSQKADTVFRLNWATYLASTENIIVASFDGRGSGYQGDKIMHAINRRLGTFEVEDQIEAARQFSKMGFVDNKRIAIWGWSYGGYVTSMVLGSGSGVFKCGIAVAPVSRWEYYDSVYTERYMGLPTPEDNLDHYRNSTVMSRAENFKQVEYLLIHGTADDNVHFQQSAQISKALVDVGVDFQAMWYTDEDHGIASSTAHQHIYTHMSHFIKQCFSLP

Structure (SMILES)	pIC50
N#Cc1ncn(C[C@H]2CC[C@@H](NCC(=O)N3CCC[C@H]3C#N)C2)c1C#N [Example-34, 1-((1S,3R)-3-{2-[(2S)-2-Cyanopyrrolidin-1-yl]-2-oxoethylamino}cyclopentylmethyl)-1H-4,5-imidazoledicarbonitrile]	8.03
N#C[C@@H]1CCCN1C(=O)CN[C@H]1CC[C@@H](Cn2cccn2)C1 [Example-28, (2S)-1-{2-[(1S,3R)-3-(1H-Pyrazol-1-ylmethyl)cyclopentylamino]acetyl}pyrrolidine-2-carbonitrile]	7.43
N#C[C@@H]1CCCN1C(=O)CN[C@@H]1CC[C@H](CN2CCOCC2)C1 [Example-19, (2S)-1-{2-[(3S,1R)-3-Morpholinomethylcyclopentylamino]acetyl}pyrrolidine-2-carbonitrile]	7.70
N#C[C@@H]1CCCN1C(=O)CN[C@@H]1CC[C@H](Cn2nc3ccccc3n2)C1 [Example-71, (2S)-1-{2-[(3S,1R)-3-(2H-benzo[d][1,2,3]triazol-2-ylmethyl)cyclopentylamino]-acetyl}pyrrolidine-2-carbonitrile]	8.03
N#C[C@@H]1CCCN1C(=O)CN[C@@H]1CC[C@H](CNC(=O)Nc2ccccc2)C1 [Example-13, N1-Phenyl-N3-((1S,3R)-3-{2-[(2S)-2-cyanopyrrolidin-1-yl]-2-oxoethylamino}-cyclopentylmethyl)urea]	7.50

These reach a higher pIC50. Values come first.

pIC50	Structure (SMILES)
8.36	N#C[C@@H]1C[C@H](F)CN1C(=O)CN[C@@H]1CC[C@H](Cn2cncn2)C1 [Example-46, (2S,4S)-1-{2-[(3S,1R)-3-(1H-1,2,4-Triazol-1-ylmethyl)cyclopentylamino]acetyl}-4-fluoropyrrolidine-2-carbonitrile succinate]
8.49	N#C[C@@H]1C[C@H](F)CN1C(=O)CN[C@@H]1CC[C@H](Cn2cncn2)C1 [Example-49, (2S,4S)-1-{2-[(3S,1R)-3-(1H-1,2,4-Triazol-1-ylmethyl)cyclopentylamino]acetyl}-4-fluoropyrrolidine-2-carbonitrile salicylate]
